# Test: Extraction capability at different nitric acid concentrations in the aqueous phase
# Assay type: physicochemical
# Conditions: 0.1 mol/L in 1-octanol or TPH/1-octanol mixtures
# Method: The organic solutions were prepared as indicated previously in section A). The aqueous solutions consisted of nitric acid solutions at different concentrations (0.06 mol/L, 0.11 mol/L, 0.65 mol/L, 1.0 mol/L, 3.1 mol/L and 6.7 mol/L) each of them spiked with 600 Bq of ^152Eu and 600 Bq of ^241Am. The nitric acid concentration of these solutions was determined by a potentiometric titration before and after the extraction equilibrium.
# The organic solutions of the compound to be studied were equilibrated with the corresponding aqueous solution, according to the different nitric acid concentrations considered, as indicated previously in section B).
# 600 µL of equilibrated organic phase were contacted with 600 µL of the aqueous phase of the corresponding nitric acid concentration. […]
# The influence of the concentration of aqueous nitric acid of the aqueous phase, from 0.05 mol/L to 7 mol/L, on the extraction of Am/Eu with compound 4 was studied in different TPH/1-octanol mixtures as solvent, and also in 100% 1-octanol. To that end, the distribution coefficients of Am(III) and Eu(III) were determined for compound 4 dissolved at 0.1 mol/L in 1-octanol and in the following TPH/1-octanol mixtures: 50:50, 75:25 and 90:10 by volume, for the following nitric acid concentrations of the solution containing Am(III)/Eu(III): 0.06 mol/L; 0.11 mol/L; 0.65 mol/L; 1.0 mol/L; 3.1 mol/L and 6.7 mol/L. […]
substance,measurement,value
2-Dioctylcarbamoylmethoxy-N-[3-[(2-dioctylcarbamoyl-methoxy-acetylamino)methyl]benzyl]acetamide [Compound 4],extraction capability at diluted nitric acid concentrations,very low

# From EP1923473B1, “Bis-diglycolamides (BISDGA) as new extractants for lanthanides [Ln(III)] and actinides [An(III)] from aqueous high-level wastes” (Universidad Autónoma de Madrid, priority 2006, dated 2008)
